From US20170253607A1, “LONG-ACTING HIV PROTEASE INHIBITOR” (Shionogi & Co., Ltd., priority 2014, published 2017)

Columns and labels:
[1] = target: HIV-1 PR (Human immunodeficiency virus type 1 group M subtype B, UniProt P04585); experiment: HIV-protease inhibitory activity assay (FRET peptide substrate); assay type: biochemical; conditions: Test Example 1
Procedure, shortened: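 Inhibition of HIV-1 protease was measured as loss of fluorescence dequenching of a HiLyte Fluor 488/QXL 520 peptide at 2 μmol/L, pH 4.8, room temperature, 60 minute reaction. IC50 was derived by nonlinear four-parameter fitting.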

[2] = Evaluation of total body clearance (CLtot), intravenous administration; assay type: in vivo, Sprague-Dawley (SD); conditions: rat (SD), intravenous administration 0.5-10 mg/kg; CLtot = dose/AUC
Method: Dose: Intravenous administration with designated doses was selected. (Doses were changed depending on compounds.) • 0.5-10 mg/kg (n=2-3) Preparation of dosing formulation: The dosing solution was prepared by dissolving in an adequate solvent. Administration method: The dosing solution was injected into the tail vein by a syringe with a needle Blood sampling: The blood was collected at the scheduled time and obtained the plasma. Plasma concentrations of the compound were measured by LC/MS/MS. Statistical analysis: Area under the plasma concentration-time curve (AUC) of the compound was calculated by pharmacokinetic analysis software, WinNonlin™ and CLtot was calculated by dividing the dose by AUC.

SMILES	IC50 [1] [nM]	rat_CLt [2] [mL/min/kg]
COc1ccc(S(=O)(=O)N(CC(C)C)CC(O)C(Cc2ccc(N3CCC(Oc4cc5ccccc5cc4-c4sc5c(c4C(=O)O)CC(C)(C)CC5)C3)cc2)NC(=O)OC2COC3(C)OCCC23)cc1 (stereo not shown) [Compound I-509]	1.96	0.377
COc1ccc(S(=O)(=O)N(CC(C)C)CC(O)C(Cc2ccc(N(C)Cc3cccc(-c4sc5c(c4C(=O)O)CC(C)(C)CC5)c3C)cc2)NC(=O)OC2COC3(C)OCCC23)cc1 (stereo not shown) [Compound I-510]	10.6	1.08
CC1(C)CCc2sc(-c3ccccc3CNc3ccc(CC(NC(=O)OC4COC5(C)OCCC45)C(O)CN(CC4CCCC4)S(=O)(=O)c4ccc5ncsc5c4)cc3)c(C(=O)O)c2C1 (stereo not shown) [Compound I-513]	1.76	3.23
COc1ccc(S(=O)(=O)N(CC(C)C)CC(O)C(Cc2ccc(N3CCC(Oc4ccc(C(F)(F)F)cc4-c4sc5c(c4C(=O)O)CC(C)(C)CC5)C3)cc2)NC(=O)OC2COC3(C)OCCC23)cc1 (stereo not shown) [Compound I-514]	6.21	3.01
COc1ccc(S(=O)(=O)N(CC(C)C)CC(O)C(Cc2ccc(N(C)CCOc3ccc(-c4sc5c(c4C(=O)O)CC(C)(C)CC5)c(C)c3)cc2)NC(=O)OC2COC3(C)OCCC23)cc1 (stereo not shown) [Compound I-519]	8.93	0.429
COc1ccc(S(=O)(=O)N(CC(C)C)CC(O)C(Cc2ccc(N3CCC(c4ccccc4-c4sc5c(c4C(=O)O)CC(C)(C)CC5)C3)cc2)NC(=O)OC2COC3(C)OCCC23)cc1 (stereo not shown) [Compound I-522]	13.6	0.144
COc1ccc(S(=O)(=O)N(CC(C)C)CC(O)C(Cc2ccc(NCC3=C(c4sc5c(c4C(=O)O)CC(C)(C)CC5)CCCCC3)cc2)NC(=O)OC2COC3(C)OCCC23)cc1 (stereo not shown) [Compound I-524]	5.03	0.23
COc1ccc(S(=O)(=O)N(CC(C)C)CC(O)C(Cc2ccc(N(C)CC3=C(c4sc5c(c4C(=O)O)CC(C)(C)CC5)CCCCC3)cc2)NC(=O)OC2COC3(C)OCCC23)cc1 (stereo not shown) [Compound I-525]	5.75	0.127
COc1ccc(S(=O)(=O)N(CC(C)C)CC(O)C(Cc2ccc(NCc3ccc(C(F)(F)F)cc3-c3sc4c(c3C(=O)O)CC(C)(C)CC4)cc2)NC(=O)OC2COC3(C)OCCC23)cc1 (stereo not shown) [Compound I-526]	6.47	0.632
COc1ccc(S(=O)(=O)N(CC(C)C)CC(O)C(Cc2ccc(NCc3cocc3-c3sc4c(c3C(=O)O)CC(C)(C)CC4)cc2)NC(=O)OC2COC3(C)OCCC23)cc1 (stereo not shown) [Compound I-528]	2.36	4.05
COc1ccc(S(=O)(=O)N(CC(C)C)CC(O)C(Cc2ccc(NCc3ccc(-c4ccccc4-c4sc5c(c4C(=O)O)CC(C)(C)CC5)cc3)cc2)NC(=O)OC2COC3(C)OCCC23)cc1 (stereo not shown) [Compound I-530]	8.31	1.57
COc1ccc(S(=O)(=O)N(CC(C)C)CC(O)C(Cc2ccc(NCc3c(-c4sc5c(c4C(=O)O)CC(C)(C)CC5)ccc4ccccc34)cc2)NC(=O)OC2COC3(C)OCCC23)cc1 (stereo not shown) [Compound I-531]	6.98	0.0543
COc1ccc(S(=O)(=O)N(CC(C)C)CC(O)C(Cc2ccc(NCc3ccc(C)c(-c4sc5c(c4C(=O)O)CC(C)(C)CC5)c3)cc2)NC(=O)OC2COC3(C)OCCC23)cc1 (stereo not shown) [Compound I-532]	4.14	0.551
COc1ccc(S(=O)(=O)N(CC(C)C)CC(O)C(Cc2ccc(N(C)Cc3cccc(C(F)(F)F)c3-c3sc4c(c3C(=O)O)CC(C)(C)CC4)cc2)NC(=O)OC2COC3(C)OCCC23)cc1 (stereo not shown) [Compound I-537]	5.5	0.328
COc1ccc(S(=O)(=O)N(CC(C)C)CC(O)C(Cc2ccc(N(C)Cc3cc(N(C)C)ccc3-c3sc4c(c3C(=O)O)CC(C)(C)CC4)cc2)NC(=O)OC2COC3(C)OCCC23)cc1 (stereo not shown) [Compound I-538]	2.86	0.598
COc1ccc(S(=O)(=O)N(CC(C)C)CC(O)C(Cc2ccc(N(C)Cc3cc(N4CCCC4)ccc3-c3sc4c(c3C(=O)O)CC(C)(C)CC4)cc2)NC(=O)OC2COC3(C)OCCC23)cc1 (stereo not shown) [Compound I-539]	2.91	0.156
COc1ccc(S(=O)(=O)N(CC(C)C)CC(O)C(Cc2ccc(N(C)Cc3ccc(C(F)(F)F)cc3-c3sc4c(c3C(=O)O)CC(C)(C)CC4)cc2)NC(=O)OC2COC3(C)OCCC23)cc1 (stereo not shown) [Compound I-540]	27.8	1.5
COc1ccc(S(=O)(=O)N(CC(C)C)CC(O)C(Cc2ccc(NCc3cc(OC)c(OC)cc3C(=O)Nc3sc4c(c3C(=O)O)CC(C)(C)CC4)cc2)NC(=O)OC2COC3(C)OCCC23)cc1 (stereo not shown) [Compound I-541]	2.34	0.195

SMILES	IC50 [1] [nM]	rat_CLt [2] [mL/min/kg]
COc1ccc(S(=O)(=O)N(CC(C)C)CC(O)C(Cc2ccc(NCc3cc(C)ccc3-c3sc4c(c3C(=O)O)CC(C)(C)CC4)cc2)NC(=O)OC2COC3(C)OCCC23)cc1 (stereo not shown) [Compound I-545]	1.85	1.15
COc1ccc(S(=O)(=O)N(CC(C)C)CC(O)C(Cc2ccc(NCc3cc(-c4sc5c(c4C(=O)O)CC(C)(C)CC5)ccc3C)cc2)NC(=O)OC2COC3(C)OCCC23)cc1 (stereo not shown) [Compound I-550]	1.75	5.29
COc1ccc(S(=O)(=O)N(CC(C)C)CC(O)C(Cc2ccc(NCc3cc4c(cc3-c3sc5c(c3C(=O)O)CC(C)(C)CC5)OCO4)cc2)NC(=O)OC2COC3(C)OCCC23)cc1 (stereo not shown) [Compound I-552]	1.41	0.985
COc1ccc(S(=O)(=O)N(CC(C)C)CC(O)C(Cc2ccc(NCc3ccc(-c4sc5c(c4C(=O)O)CC(C)(C)CC5)cc3O)cc2)NC(=O)OC2COC3(C)OCCC23)cc1 (stereo not shown) [Compound I-555]	1.68	5.98
COc1ccc(S(=O)(=O)N(CC(C)C)CC(O)C(Cc2ccc(NCc3cc(OC)c(OC)cc3-c3sc4c(c3C(=O)O)CC(C)(C)CC4)cc2)NC(=O)OC2COC3(C)OCCC23)cc1 (stereo not shown) [Compound I-560]	1.65	4.5
COc1ccc(S(=O)(=O)N(CC(C)C)CC(O)C(Cc2ccc(NCc3cc(O)ccc3-c3sc4c(c3C(=O)O)CC(C)(C)CC4)cc2)NC(=O)OC2COC3(C)OCCC23)cc1 (stereo not shown) [Compound I-561]	1.35	4.48
COc1ccc(S(=O)(=O)N(CC(C)C)CC(O)C(Cc2ccc(NCc3ccc(Cl)cc3-c3sc4c(c3C(=O)O)CC(C)(C)CC4)cc2)NC(=O)OC2COC3(C)OCCC23)cc1 (stereo not shown) [Compound I-563]	2.13	0.883
COc1ccc(S(=O)(=O)N(CC(C)C)CC(O)C(Cc2ccc(NCc3cc(OC)ccc3-c3sc4c(c3C(=O)O)CC(C)(C)CC4)cc2)NC(=O)OC2COC3(C)OCCC23)cc1 (stereo not shown) [Compound I-566]	1.61	0.727
COc1ccc(S(=O)(=O)N(CC(C)C)CC(O)C(Cc2ccc(NCc3cc([N+](=O)[O-])ccc3-c3sc4c(c3C(=O)O)CC(C)(C)CC4)cc2)NC(=O)OC2COC3(C)OCCC23)cc1 (stereo not shown) [Compound I-567]	3.12	2.81
COc1ccc(S(=O)(=O)N(CC(C)C)CC(O)C(Cc2ccc(NCc3ccccc3NC(=O)c3sc4c(c3C(=O)O)CC(C)(C)CC4)cc2)NC(=O)OC2COC3(C)OCCC23)cc1 (stereo not shown) [Compound I-574]	2.93	1.01
COc1ccc(S(=O)(=O)N(CC(C)C)CC(O)C(Cc2ccc(N3CC(Oc4ccccc4C(=O)Nc4sc5c(c4C(=O)O)CC(C)(C)CC5)C3)cc2)NC(=O)OC2COC3(C)OCCC23)cc1 (stereo not shown) [Compound I-575]	8.32	0.267
COc1ccc(S(=O)(=O)N(CC(C)C)CC(O)C(Cc2ccc(N3CCC(Oc4ccccc4-c4sc5c(c4C(=O)O)CC(C)(C)CC5)CC3)cc2)NC(=O)OC2COC3(C)OCCC23)cc1 (stereo not shown) [Compound I-578]	2.39	3.16
COc1ccc(S(=O)(=O)N(CC(C)C)CC(O)C(Cc2ccc(N3CCC(Oc4cc(C(F)(F)F)ccc4-c4sc5c(c4C(=O)O)CC(C)(C)CC5)C3)cc2)NC(=O)OC2COC3(C)OCCC23)cc1 (stereo not shown) [Compound I-579]	4.38	1.66
COc1ccc(S(=O)(=O)N(CC(C)C)CC(O)C(Cc2ccc(NCc3ccc(OC)cc3C(=O)Nc3sc4c(c3C(=O)O)CC(C)(C)CC4)cc2)NC(=O)OC2COC3(C)OCCC23)cc1 (stereo not shown) [Compound I-580]	3.23	0.0683
COc1ccc(S(=O)(=O)N(CC(C)C)CC(O)C(Cc2ccc(NCc3cc4ccccc4cc3-c3sc4c(c3C(=O)O)CC(C)(C)CC4)cc2)NC(=O)OC2COC3(C)OCCC23)cc1 (stereo not shown) [Compound I-581]	4.02	0.204
COc1ccc(S(=O)(=O)N(CC(C)C)CC(O)C(Cc2ccc(N(C)Cc3cc4ccccc4cc3-c3sc4c(c3C(=O)O)CC(C)(C)CC4)cc2)NC(=O)OC2COC3(C)OCCC23)cc1 (stereo not shown) [Compound I-582]	9.36	0.179
COc1ccc(S(=O)(=O)N(CC(C)C)CC(O)C(Cc2ccc(N(C)Cc3cc(N4CCCC4=O)ccc3-c3sc4c(c3C(=O)O)CC(C)(C)CC4)cc2)NC(=O)OC2COC3(C)OCCC23)cc1 (stereo not shown) [Compound I-584]	2.3	0.77
